Results on one substance are retold here after US20250352524A1, “PREVENTION OF METASTATIC OUTGROWTH USING TEAD INHIBITORS” (Georgetown University, priority 2024, published 2025).

“Also recorded” adds a separate entry of the source.

Assay [1] relates to E0771 mammary carcinoma cells. As to the kind of experiment: E0771 mammary fat pad tumors in C57/BL6 mice, lung metastasis and lung immune profiling. Format: in vivo. The conditions noted are these: for primary tumor growth / size: 30 mg/kg daily oral gavage from palpable tumors (3 weeks), resection at week 4; for lung metastases (number of mice / incidence): 30 mg/kg daily vs vehicle, H&E lung sections. The procedure: In this study, E0771 mammary carcinoma cells were injected into the MFP of C57/BL6 mice. Treatment for this group started after tumors were palpable at 3-4 weeks. Similarly, no effect was observed on the primary tumor growth, yet lung metastases were decreased (FIG. 3, Panels A and B). […] Additionally, lung infiltrating CD8+ T-cells increased in iTEAD-treated mice (FIG. 3, Panel D).
E0771 cells were injected into the mammary fat pad of C57BL/6 mice (Johnstone et al., 2015). When primary tumors became palpable at 3 weeks, mice were treated daily with VT107 or vehicle control. Mice weights were monitored throughout treatment (FIG. 8, Panel B). Primary tumors were surgically resected at week 4 and mice were euthanized at week 6 to inspect lungs for metastases (FIG. 9, Panel A)
There was no difference in the primary tumor size between treatment groups nor the size of recurrent tumors at 6 weeks (FIG. 9, Panel B and FIG. 8, Panel C). […] To investigate tissue specific effects, gene expression changes between treatment groups in lung and tumor tissues were analyzed by RNA-sequencing. […] To reduce the impact of TEAD inhibition on cancer cell intrinsic function such as dissemination and invasion, 4T1, a triple negative mouse mammary carcinoma cell line (Pulaski & Ostrand-Rosenberg, 2000), was injected into the tail vein of BALB/c mice that directly seed into the lung tissue. A reduction in lung metastases, as well as the suppression of inflammatory pathways, were observed (FIG. 9, Panels E and F, and FIG. 8, Panel F).
Formalin-fixed, paraffin embedded (FFPE) lung tissue sections were stained with hematoxylin and eosin. Immunohistochemistry staining was performed on FFPE tumor and lung tissue sections. Slides were deparaffinized in xylene and rehydrated following a series of ethanol washes. Heat-induced antigen retrieval was then performed by placing slides in warmed sodium citrate buffer (pH 6.0) (Invitrogen, 005000) in a pre-heated steamer for 20 minutes. Slides were cooled at room temperature for an additional 20 minutes, prior to quenching endogenous peroxidase activity using 3% hydrogen peroxide buffer (Fisher, BP2633500) for 10 minutes. Next, slides were incubated overnight at 4° C. with either anti-CD8 (Cell Signaling Technology, #98941), anti-CD68 (Abcam, ab303565), anti-CD206 (Cell Signaling Technology, #24595), or anti-F480 (Cell Signaling Technology, #70076). Following PBS washes, the slides are then stained with a biotinylated secondary antibody using the VECTASTAIN Elite ABC-HRP Kit according to the user's manual (Vector Laboratories, PK-6101). Positive brown staining was produced by applying ImmPACT DAB EqV Substrate Kit (Vector Laboratories, SK-4103) to the slides, which were then counterstained with hematoxylin (Sigma, MHS16). Images were captured using the Olympus BX40 microscope, and positive staining was quantified manually. Immunofluorescent staining was performed on lung tissue sections. Slides were baked at 60°, deparaffinized in xylene, rehydrated, washed in DI water and incubated with 10% neutral buffered formalin (NBF) for an additional 20 minutes to increase tissue-slide retention. Epitope retrieval/microwave treatment (MWT) for all antibodies was performed by boiling slides in Antigen Retrieval buffer 6 (AR6 pH6, Akoya AR6001KT). Protein blocking is performed using antibody diluent/blocking buffer (Akoya, ARD1001EA) for 10 minutes at room temperature. Slides were incubated with Luciferase antibody (Sigma, #L0159) for 1 hour and OPAL Fluoresce 620 then counterstained with spectral DAPI (Akoya FP1490) for 5 min and mounted with ProLong Diamond Antifade (ThernoFisher, P36961). Slides were scanned at 10× magnification using the Vectra 3.0 Automated Quantitative Pathology Imaging System (PerkinElmer/Akoya).
Single cell suspensions were washed 2× with PBS. […]

For the next assay, the system named is peritoneal macrophages. The experiment in a line: Gene expression and pathway analysis of peritoneal macrophages treated in vitro. Format: cell-based, mouse. The text has this: To investigate whether the effect of iTEAD treatment on macrophages can enhance their crosstalk with T-cells in the lung microenvironment, peritoneal macrophages+/−iTEAD were first isolated and characterized as a model of resident macrophages for ex vivo experiments (FIG. 14, Panel A). It was observed that treatment with VT107 decreased gene expression of M2-like and fibrosis regulators, Aldh1a1 and Cc117 (Chen et al., 2020), as well as TEAD4 and its downstream target gene Ankrd1. […] The iTEAD pretreated peritoneal macrophages and untreated T-cells isolated from the spleen of tumor naïve mice (FIG. 14, Panel A) were then mixed for 5 hours before collecting the conditioned media for analysis. […] Next, these immune cell mixes were added to 4T1 spheres that were embedded into matrix. […] This effect was reversed by an IL12 neutralizing antibody. No change in cleaved caspase-3 in 4T1 cells in the presence of VT107-treated T-cells or macrophages alone, was detected at 24 hours (FIG. 14, Panels C and D). 4T1 cells were then plated and allowed to attach on electrode-coated arrays to monitor cancer cell viability before the addition of macrophages+/−iTEAD and T-cells. […] This reversal of T-cell cytotoxicity by IL12 antibodies was not observed in VT107-treated T-cells in the absence of macrophages (FIG. 15, Panel E) indicating a critical role for IL12 in the crosstalk between macrophages and T-cells.
The total RNA from tissue or cell lines was extracted using RNeasy Mini Kit (Qiagen, #74104) according to the manufacturer's instructions. Total RNA integrity was assessed with the Agilent 2100 Bioanalyzer. The library preparation and next-generation sequencing (NGS) were performed at Novogene Corporation Inc. (Sacramento, CA, USA). At least triplicate samples per experimental condition were analyzed, raw sequence reads (150 bp paired end, […] average reads/sample) were aligned to the human or mouse transcriptome using STAR, and aligned reads translated to expression counts via featurecounts, followed by a standard edgeR (RRID:SCR_012802) pipeline to identify DEGs under specific conditions. Ingenuity pathway analysis (IPA, RRID:SCR_008653) was undertaken using a list of all differentially expressed genes with a cutoff of p-value less than 0.05 to identify signaling pathways and upstream regulators.

The mark [2] stands for this setting: flow cytometry, tumor bearing mice.
[3] abbreviates: flow cytometry, tumor bearing mice, listed as iTEAD.
Setting [4] is: 1 μM VT107 for 24 hours, pathway analysis.

Consider VT107, for which, in assay [1], the “primary tumor growth / size” value is listed as “no difference” and the “lung metastases (number of mice / incidence)” value is recorded as “significantly less incidence”. In assay [1] (listed as iTEAD), the “primary tumor growth / size” value is on record as “no effect; also recorded: no change” and the “lung metastases (number of mice / incidence)” value was “decreased; also recorded: reduced”. Besides, the “number of CD8+ T-cells in lung tissue” value in assay [1] (CD8 immunohistochemistry, tumor bearing mice, listed as iTEAD) is “increase in the number and infiltration; also recorded: significantly greater”. Besides, in assay [1] (CD8 immunohistochemistry, listed as iTEAD), the “CD8+ T-cells in lung metastatic lesions” value is recorded as “infiltrated into lung metastases”. The “number of gene changes due to treatment, lungs compared to primary tumors” value in assay [1] (RNA-sequencing) is on record as “higher number”. Also, the “size of recurrent tumors” value in assay [1] (at 6 weeks, 2 weeks after resection) is listed as “no difference”. In assay [1] (setting [2]), the “CD86 (M1-like) in the lung macrophage population” value is on record as “significantly enriched”, the “CD86/CD206 shift in the alveolar macrophage population” value is “also significant” and the “CD206 (M2-like) in the lung macrophage population” value is reported as “significantly reduced”. Besides, in assay [1] (setting [3]), the “infiltrating macrophages / monocytes in the lungs” value was “significant decrease”, the “lung infiltrating CD8+ T-cells” value is reported as “increased; also recorded: higher numbers” and the “resident alveolar macrophages in the lungs” value was “higher frequency; also recorded: significant increase”. Also, in assay [1] (pathway analysis), the “LXR/RXR anti-inflammatory pathway in lung tissues” value is listed as “increased”; the “disease-related inflammation pathways (hepatic and lung fibrosis, cardiac hypertrophy) in lung tissues” value is given as “decrease”. For the same substance, in the assay with peritoneal macrophages (setting [4]), the “cell cycle related pathways” value is “upregulated” and the “disease-related chronic inflammation pathways” value is reported as “downregulation”. Moreover, in the assay with peritoneal macrophages (1 μM VT107 for 72 hours), the Pvalb gene expression result was “top upregulated gene”; the “gene expression of Aldh1a1, Cc117, TEAD4 and Ankrd1” value was “decreased”.
